From patent publication US12083100B1, “Antiparasitic isoxazoline compounds, long-acting injectable formulations comprising them, methods and uses thereof” (BOEHRINGER INGELHEIM ANIMAL HEALTH USA INC., priority 2016, dated 2024)

Tests used:
[1] = test system: Haematobia irritans (horn fly); assay: Efficacy of long-acting injectable composition against Haematobia irritans (horn fly) on cattle; type: in vivo; details: naturally infested cattle, 10% (w/v) composition at 0.25 mL/50 kg body weight
Procedure: The efficacy of a long-acting injectable composition comprising the compound of formula (S)-Ie against horn fly on cattle was evaluated. Two groups of 15 cattle were selected for the study and randomly assigned to one of two groups. The cattle in Group 1 were untreated and the cattle in Group 2 were treated with a long-acting composition of the invention containing 10% (w/v) of the compound of formula (S)-Ie in a carrier comprising 8% (w/v) ethanol in PEG 400 (QS). The composition was administered to the cattle in Group 2 at a dose of 0.25 mL/50 kg body weight. Each animal was naturally infested with horn flies, and horn fly counts were performed on Days-2, 3, 7, 10, 13, 16, 20, 23, 27, 30, 34, 37, 43, 45 and 48. Tables 2A and 2B below provide the horn fly counts and the % reduction of the treated group relative to the control.

[2] = test system: Rhipicephalus microplus ticks; assay: Efficacy of injectable formulation against Rhipicephalus (Boophilus) microplus ticks on cattle; type: in vivo; details: for Average % Efficacy (Tick Count): vs untreated control
Procedure: The efficacy of long-acting injectable compositions of the invention comprising the compounds of formula (Ie) and (S)-Ie, against Rhipicephalus microplus ticks on cattle was determined against an untreated control group. The efficacy of compositions comprising the compounds (Ie) and (S)-e were also compared with injectable compositions comprising afoxolaner (formula Ia, 4-[5-[3-chloro-5-(trifluoromethyl)phenyl]-4,5-dihydro-5-(trifluoromethyl)-3-isoxazolyl]-N-[2-oxo-2-[(2,2,2-trifluoroethyl)amino]ethyl]-1-naphthalanecarboxamide), and comparative compounds of formulae (If) and (S)-If shown below.
Each compound was formulated in an injectable composition at a concentration of 10% (w/v) in a carrier comprising 8% (w/v) ethanol and Q.S. with polyethylene glycol 400. The racemic compounds afoxolaner and (If) were dosed at 1.0 mg/kg body weight and the (S)-enantiomers ((S)-Ie and (S)-If) were dosed at 0.5 mg/kg body weight. Six healthy head of cattle were used in each study group. Cattle in Group 1 were untreated (control). Cattle in Groups 2, 3, 4, 5 and 6 were treated on Day 0 subcutaneously with injectable compositions comprising the compounds of formula Ie, (S)-If, (S)-Ie, afoxolaner (Ia) and (If), respectively. Several weeks before treatment, cattle were infested three times a week with approximately 2500 Rhipicephalus microplus larvae to establish ongoing infestations. Each animal was challenged by infestation with approximately 5000 R. microplus larvae on Days 7 and 21 and every 14 days thereafter. Ticks dropping from each animal in the previous 24 hours were collected daily and counted from Day 1 until the end of the study.

[3] = injectable composition, compared with afoxolaner, (If) or (S)-If

For `O=C(CNC(=O)c1ccc(C2=NO[C@@](c3cc(Cl)c(F)c(C(F)(F)F)c3)(C(F)(F)F)C2)c2ccccc12)NCC(F)(F)F` [(S)-Ie], the “% Reduction of horn fly counts of the treated group relative to the control” value ([1]; Day 3) was 89.5%, the “Arithmetic Mean of Horn Fly Counts” value ([1]; Day 3) was 26.7 and the “% Reduction of horn fly counts of the treated group relative to the control” value ([1]; Day 7) was 74.3%. The “Arithmetic Mean of Horn Fly Counts” value ([1]; Day 7) was 35.0, the “% Reduction of horn fly counts of the treated group relative to the control” value ([1]; Day 10) was 79.6% and the “Arithmetic Mean of Horn Fly Counts” value ([1]; Day 10) was 16.0. The “% Reduction of horn fly counts of the treated group relative to the control” value ([1]; Day 13) was 63.3%, the “Arithmetic Mean of Horn Fly Counts” value ([1]; Day 13) was 22.0 and the “% Reduction of horn fly counts of the treated group relative to the control” value ([1]; Day 16) was 57.3%. For the same compound, the “Arithmetic Mean of Horn Fly Counts” value ([1]; Day 16) was 44.7, the “% Reduction of horn fly counts of the treated group relative to the control” value ([1]; Day 20) was 56.6% and the “Arithmetic Mean of Horn Fly Counts” value ([1]; Day 20) was 36.0. For the same compound, the “% Reduction of horn fly counts of the treated group relative to the control” value ([1]; Day 23) was 42.5%, the “Arithmetic Mean of Horn Fly Counts” value ([1]; Day 23) was 30.7 and the “% Reduction of horn fly counts of the treated group relative to the control” value ([1]; Day 27) was 61.8%. The “Arithmetic Mean of Horn Fly Counts” value ([1]; Day 27) was 22.7, the “% Reduction of horn fly counts of the treated group relative to the control” value ([1]; Day 30) was 67.6% and the “Arithmetic Mean of Horn Fly Counts” value ([1]; Day 30) was 23.0. The “% Reduction of horn fly counts of the treated group relative to the control” value ([1]; Day 34) was 44.8%, the “Arithmetic Mean of Horn Fly Counts” value ([1]; Day 34) was 26.3 and the “% Reduction of horn fly counts of the treated group relative to the control” value ([1]; Day 37) was 61.8%. The “Arithmetic Mean of Horn Fly Counts” value ([1]; Day 37) was 28.0, the “% Reduction of horn fly counts of the treated group relative to the control” value ([1]; Day 43) was 39.5% and the “Arithmetic Mean of Horn Fly Counts” value ([1]; Day 43) was 26.0. The “% Reduction of horn fly counts of the treated group relative to the control” value ([1]; Day 45) was 35.5%, the “Arithmetic Mean of Horn Fly Counts” value ([1]; Day 45) was 43.0 and the “% Reduction of horn fly counts of the treated group relative to the control” value ([1]; Day 48) was 31.1%. The “Arithmetic Mean of Horn Fly Counts” value ([1]; Day 48) was 30.3, the “Average % Efficacy (Tick Count)” value ([2]; Day 5, 0.5 mg/kg subcutaneous on Day 0 ((S)-enantiomers)) was 66% and the “Average % Efficacy (Tick Count)” value ([2]; Day 10, 0.5 mg/kg subcutaneous on Day 0 ((S)-enantiomers)) was 93%. The “Average % Efficacy (Tick Count)” value ([2]; Day 20, 0.5 mg/kg subcutaneous on Day 0 ((S)-enantiomers)) was 100%, the “Average % Efficacy (Tick Count)” value ([2]; Day 30, 0.5 mg/kg subcutaneous on Day 0 ((S)-enantiomers)) was 100% and the “Average % Efficacy (Tick Count)” value ([2]; Day 40, 0.5 mg/kg subcutaneous on Day 0 ((S)-enantiomers)) was 100%. For the same compound, the “Average % Efficacy (Tick Count)” value ([2]; Day 49, 0.5 mg/kg subcutaneous on Day 0 ((S)-enantiomers)) was 100%, the “Average % Efficacy (Tick Count)” value ([2]; Day 55, 0.5 mg/kg subcutaneous on Day 0 ((S)-enantiomers)) was 100% and the “Average % Efficacy (Tick Count)” value ([2]; Day 60, 0.5 mg/kg subcutaneous on Day 0 ((S)-enantiomers)) was 100%. The “Average % Efficacy (Tick Count)” value ([2]; Day 65, 0.5 mg/kg subcutaneous on Day 0 ((S)-enantiomers)) was 100%, the “Average % Efficacy (Tick Count)” value ([2]; Day 70, 0.5 mg/kg subcutaneous on Day 0 ((S)-enantiomers)) was 100% and the “Average % Efficacy (Tick Count)” value ([2]; Day 75, 0.5 mg/kg subcutaneous on Day 0 ((S)-enantiomers)) was 100%. The “Average % Efficacy (Tick Count)” value ([2]; Day 80, 0.5 mg/kg subcutaneous on Day 0 ((S)-enantiomers)) was 100%, the “Average % Efficacy (Tick Count)” value ([2]; Day 85, 0.5 mg/kg subcutaneous on Day 0 ((S)-enantiomers)) was 90% and the “Average % Efficacy (Tick Count)” value ([2]; Day 88, 0.5 mg/kg subcutaneous on Day 0 ((S)-enantiomers)) was 88%. The “Average % Efficacy (Tick Count)” value ([2]; Day 95, 0.5 mg/kg subcutaneous on Day 0 ((S)-enantiomers)) was 92%, the “Average % Efficacy (Tick Count)” value ([2]; Day 100, 0.5 mg/kg subcutaneous on Day 0 ((S)-enantiomers)) was 88% and the “Average % Efficacy (Tick Count)” value ([2]; Day 105, 0.5 mg/kg subcutaneous on Day 0 ((S)-enantiomers)) was 76%. The “Average % Efficacy (Tick Count)” value ([2]; Day 110, 0.5 mg/kg subcutaneous on Day 0 ((S)-enantiomers)) was 65%, the “efficacy and duration of activity against Rhipicephalus microplus compared with other isoxazoline compounds” value [2, 3] was “surprising and unexpected efficacy” and the “speed of onset of efficacy against Rhipicephalus microplus compared with other isoxazoline compounds” value [2, 3] was “faster-acting”.
